Assay results from ChEMBL document CHEMBL5375993, “Structure-Based Discovery of Potent, Orally Bioavailable Benzoxazepinone-Based WD Repeat Domain 5 Inhibitors” (J Med Chem, 2023).

Columns and labels:
[1] = target: T1, WD repeat-containing protein 5 (Homo sapiens, UniProt P61964); experiment: Inhibition of 6His-SUMO tagged human WDR5 (22 to 334 residues) expressed in Escherichia coli BL21-Gold (DE3) cells incubated for 1 hr by TR-FRET assay
[2] = test system: MV4-11; experiment: Antiproliferative activity against human MV4-11 cells assessed as growth inhibition incubated for 5 days by CellTiter-Glo reagent based assay; type: functional; settings: MV4-11, 120 h, time 5 day
[3] = test system: MOLM-13; experiment: Antiproliferative activity against human MOLM-13 cells assessed as growth inhibition incubated for 5 days by CellTiter-Glo reagent based assay; type: functional; settings: MOLM-13, 120 h, time 5 day
[4] = test system: K562; experiment: Antiproliferative activity against human K562 cells assessed as growth inhibition incubated for 5 days by CellTiter-Glo reagent based assay; type: functional; settings: K562, 120 h, time 5 day
[5] = Selectivity ratio of GI50 for human K562 cells to GI50 for human MV4-11 cells; type: functional
[6] = Kinetic aqueous solubility of the compound in PBS at pH 7.4 at 100 uM incubated for 1 hr by UV-visible analysis; type: physicochemical; settings: buffer, pH 7.4, 1 h, 100 µM
[7] = Protein binding in mouse whole blood at 1 uM incubated for 4 hrs by LC-MS/MS based rapid equilibrium dialysis method; type: ADME, tissue-based
[8] = Unbound fraction in CD-1 mouse whole blood at 1 uM; type: ADME, tissue-based
[9] = test system: MV4-11; experiment: Antiproliferative activity against human MV4-11 cells; type: functional
[10] = test system: K562; experiment: Antiproliferative activity against human K562 cells; type: functional
[11] = target: T1, WD repeat-containing protein 5; experiment: Induction of WDR5 degradation in human MV4-11 cells incubated for 18 hrs; type: cell-based
[12] = target: T1, WD repeat-containing protein 5; experiment: Induction of WDR5 degradation in human MV4-11 cells assessed as maximum degradation at 0.5 uM incubated for 18 hrs relative to control; type: cell-based
[13] = AUC(0 to last) in CD-1 mouse at 3 mg/kg, iv measured upto 24 hrs by LC-MS/MS analysis; type: ADME, organism-based; design: dose 3 mg/kg, time < 24 hrs, route iv; settings: in vivo; for AUClast: mouse, 24 h
[14] = Volume of distribution at steady state in CD-1 mouse at 3 mg/kg, iv measured upto 24 hrs by LC-MS/MS analysis; type: ADME, organism-based; settings: in vivo
[15] = Cmax in CD-1 mouse at 50 mg/kg, po measured upto 24 hrs by LC-MS/MS analysis; type: ADME, organism-based; design: time < 24 hrs, dose 50 mg/kg, route po; settings: in vivo
[16] = AUC(0 to last) in CD-1 mouse at 50 mg/kg, po measured upto 24 hrs by LC-MS/MS analysis; type: ADME, organism-based; design: dose 50 mg/kg, time < 24 hrs, route po; settings: in vivo; for AUClast: mouse, 24 h
[17] = Clearance in CD-1 mouse assessed as hepatic blood flow; type: ADME, tissue-based
[18] = Oral bioavailability in CD-1 mouse at 50 mg/kg measured upto 24 hrs by LC-MS/MS analysis; type: ADME, organism-based; settings: in vivo

In the case of `COc1cnc2c(c1)[C@@H](N1CCOc3c(cc(Cn4ccnc4)cc3-c3cn(C)nc3C(F)(F)F)C1=O)CCC2`, the Ki [1] is reported as < 0.02 nM, the GI50 [2] is reported as 3.2 nM and the GI50 [3] is reported as 10 nM. It also gave a GI50 [4] of 2800 nM, a RatioGI50 [5] of 880 and a Kinetic_solubility [6] of 74 µM. The PB [7] was 94.2% and the Fu [8] was 8.1%.

With `Cc1ncsc1-c1ccc([C@H](C)NC(=O)[C@@H]2C[C@@H](O)CN2C(=O)[C@@H](NC(=O)CNC(=O)c2ccc(F)c(-c3ccc(N4C[C@@H](C)N(C)[C@@H](C)C4)c(NC(=O)c4c[nH]c(=O)cc4C(F)(F)F)c3)c2)C(C)(C)C)cc1` the GI50 [9] was 15 nM, the GI50 [10] was > 2500 nM and the EC50 [11] was 4 nM. It also gave an Emax [12] of 94%.

Molecule `COc1cc(CN2CCNc3c(cc(Cn4ccn(C)c4=N)cc3-c3ccc(F)cc3C)C2=O)cc(OC)c1` has a Ki [1] of 0.047 nM, a GI50 [2] of 76 nM and a GI50 [3] of 250 nM. For the same molecule, the GI50 [4] was > 30000 nM and the RatioGI50 [5] was >390.

`COc1cc(CN2CNc3c(cc(Cn4ccn(C)c4=N)cc3-c3ccc(F)cc3C)C2=O)cc(OC)c1` gave a Ki [1] of 0.026 nM, a GI50 [2] of 140 nM and a GI50 [3] of 320 nM. It also gave a GI50 [4] of 18000 nM and a RatioGI50 [5] of 130.

`COc1cc(CN2Cc3c(cc(Cn4ccn(C)c4=N)cc3-c3ccc(F)cc3C)C2=O)cc(OC)c1` gave a Ki [1] of 0.57 nM, a GI50 [2] of 5400 nM and a GI50 [3] of 6000 nM. For the same molecule, the GI50 [4] was 19000 nM and the RatioGI50 [5] was 4.

`COc1cc(CN2COc3c(cc(Cn4ccn(C)c4=N)cc3-c3ccc(F)cc3C)C2=O)cc(OC)c1` showed a Ki [1] of 0.051 nM, a GI50 [2] of 240 nM and a GI50 [3] of 350 nM. It also gave a GI50 [4] of 9000 nM and a RatioGI50 [5] of 38.

For `CCc1cnc2c(c1)[C@@H](N1CCOc3c(cc(Cn4ccnc4)cc3-c3cn(C)nc3C(F)(F)F)C1=O)CCC2`, the Ki [1] was < 0.02 nM, the GI50 [2] was 7.7 nM and the GI50 [3] was 12 nM. The GI50 [4] was 3900 nM, the RatioGI50 [5] was 510 and the AUClast [13] was 535 ng·h/mL. For the same molecule, the Vdss [14] was 1.4 L/kg, the Cmax ([15]; mouse, 24 h) was 13903 ng/mL and the AUClast [16] was 24598 ng·h/mL. The QH [17] was 106% and the Fu [8] was 5.8%.

In the case of `CCn1cc(-c2cc(Cn3ccnc3)cc3c2NCN([C@H](c2cc(OC)ccn2)C2CC2)C3=O)c(C(F)(F)F)n1`, the Ki [1] is reported as < 0.02 nM, the GI50 [2] is reported as 32 nM and the GI50 [3] is reported as 52 nM. The GI50 [4] was 5800 nM and the RatioGI50 [5] was 180.

In the case of `CCn1cc(-c2cc(Cn3ccnc3)cc3c2OCCN([C@H](c2cc(OC)ccn2)C2CC2)C3=O)c(C(F)(F)F)n1`, the Ki [1] is reported as < 0.02 nM, the GI50 [2] is reported as 57 nM and the GI50 [3] is reported as 110 nM. It also gave a GI50 [4] of 15000 nM, a RatioGI50 [5] of 260 and an AUClast [13] of 1785 ng·h/mL. The Vdss [14] was 1 L/kg, the Cmax ([15]; mouse, 24 h) was 8240 ng/mL and the AUClast [16] was 28832 ng·h/mL. The F [18] was 97%, the QH [17] was 32% and the Fu [8] was 0.6%.

With `COc1cc(CN2CCc3c(cc(Cn4ccn(C)c4=N)cc3-c3ccc(F)cc3C)C2=O)cc(OC)c1` the Ki [1] was < 0.02 nM, the GI50 [2] was 38 nM and the GI50 [3] was 78 nM. The GI50 [4] was 8000 nM.

For `COc1cc(CN2CC(=O)Nc3c(cc(Cn4ccn(C)c4=N)cc3-c3ccc(F)cc3C)C2=O)cc(OC)c1`, the Ki [1] was 0.1 nM, the GI50 [2] was 210 nM and the GI50 [3] was 630 nM. For the same molecule, the GI50 [4] was > 30000 nM and the RatioGI50 [5] was >140.

For `CCn1cc(-c2cc(Cn3ccnc3)cc3c2CCN([C@H](c2cc(OC)ccn2)C2CC2)C3=O)c(C(F)(F)F)n1`, the Ki [1] was < 0.02 nM, the GI50 [2] was 19 nM and the GI50 [3] was 37 nM. For the same molecule, the GI50 [4] was 1500 nM, the RatioGI50 [5] was 79 and the AUC(0-t) at 24 h ([13]; CD-1, mouse) was 2560 ng·h/mL. For the same molecule, the Cmax ([15]; CD-1, mouse, read-out: Cmax) was 6550 ng/mL and the AUC(0-t) at 24 h ([16]; CD-1, mouse) was 20100 ng·h/mL.
